Measurements as given in patent US20070122344A1, “Intraoperative determination of nerve location” (University of Rochester Medical Center Office of Technology …, priority 2005, published 2007).
Entries after “also recorded” stand apart in the source; their conditions may differ. Where two headings read alike, the source gives them in different places.

Key:
mammals = conditions: cited from earlier work
[1] = cited from earlier work
cavernous nerves = test: NIRF intraoperative imaging of rat cavernous nerves after injection of ICG into the crura; format: in vivo; conditions: rats
Source text: The area was examined for retrograde axonal transport at different time points, using a NIRF intraoperative imaging system (SPY®, Novadaq Technologies Inc., Mississauga, Ontario, Canada) that illuminates tissues with a 805 nm laser and captures images with a camera sensitive to infrared fluorescence. Near infrared microscopy and conventional histology were used to confirm the macroscopically identified fluorescent structures. […] (These were specific time points at which examinations were made. […] The fluorescent nerves were then excised.

[2] = mammals, several months after the treatment

Row | Compound | neuronal toxicity (mammals; [2]) | neuronal toxicity (mammals; used in mammals) | distribution ([1]; after intravenous injection, with normal vascular permeability) | excretion ([1]; after intravenous injection) | metabolism in the body ([1]; after intravenous injection) | enterohepatic recirculation ([1]; in vivo) | reabsorption from the intestine ([1]; in vivo) | identification of the cavernous nerves by fluorescence (cavernous nerves; ICG injected into both crura, examined at 6, 8, 12, 18, 24 and 36 hours post injection, NIRF imaging (SPY)) | fluorescence of the cavernous nerves at longer post-injection periods (cavernous nerves; ICG injected into crura, e.g. 30 days post-injection)
1 | N=C(N)c1ccc(/C=C/c2ccc(C(=N)N)cc2O)cc1 [Fluorogold] | without evidence of neuronal toxicity | low evidence of neuronal toxicity |  |  |  |  |  |  | 
2 | CC1(C)C(/C=C/C=C/C=C/C=C2\N(CCCCS(=O)(=O)O)c3ccc4ccccc4c3C2(C)C)=[N+](CCCCS(=O)(=O)[O-])c2ccc3ccccc3c21 [ICG, indocyanine green] | without evidence of neuronal toxicity | low evidence of neuronal toxicity | remains intravascular | excreted exclusively by the liver | not metabolized | does not undergo enterohepatic recirculation | not reabsorbed | permitted identification of the nerves; also recorded: nerves were identified in situ | not detectable
3 | Fast Blue | without evidence of neuronal toxicity | low evidence of neuronal toxicity |  |  |  |  |  |  | 
